Test results reported in article PMC10060569 (Frontiers in Pharmacology, 2023).

Molecular target: T1, L191A/S15V-hP2X3R (Homo sapiens, UniProt P56373, L191A/S15V)
T1 construct: expressed in transfected cells; host or cells: Xenopus laevis oocytes (cRNA injection)
T1 sequence (P56373 1-397 S15V/L191A): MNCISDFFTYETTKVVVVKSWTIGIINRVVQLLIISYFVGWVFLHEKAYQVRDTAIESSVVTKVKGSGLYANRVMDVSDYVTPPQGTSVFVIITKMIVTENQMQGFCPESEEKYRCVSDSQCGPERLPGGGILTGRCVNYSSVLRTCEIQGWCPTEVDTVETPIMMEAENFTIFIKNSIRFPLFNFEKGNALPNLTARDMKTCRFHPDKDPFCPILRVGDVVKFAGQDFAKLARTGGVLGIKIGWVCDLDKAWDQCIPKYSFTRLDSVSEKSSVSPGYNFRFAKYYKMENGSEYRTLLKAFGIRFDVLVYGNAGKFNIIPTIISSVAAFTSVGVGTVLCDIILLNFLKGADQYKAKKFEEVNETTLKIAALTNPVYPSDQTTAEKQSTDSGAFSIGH
Assay: TEVC of ATP-induced currents, L191A/S15V-hP2X3R mutant in X. laevis oocytes
Assay type: cell-based
Description: Ion currents mediated by P2X receptors were evoked by the indicated concentration of ATP or α,β-meATP and were recorded 1 or 2 days after cRNA injection at ambient temperature at a holding potential of −60 mV by two-electrode voltage clamp (TEVC) as previously described ([Hausmann et al., 2006]). Calcium-free ORi^− solution (90 mM NaCl, 1 mM KCl, 2 mM MgCl2, 10 mM HEPES, pH 7.4) was used to avoid bias due to calcium-activated chloride channels (CaCC) endogenously expressed in X. laevis oocytes ([Miledi, 1982]; [Methfessel et al., 1986]). For recordings of wt-hP2X7R, the composition of the ORi^− solution was modified according to protocols described previously and contained 100 mM NaCl, 2.5 mM KCl, 1 mM MgCl2, 5 mM HEPES, pH 7.4 ([Klapperstück et al., 2000]). The oocytes were continuously superfused with ORi^− by gravity flow (5–10 ml/min). The agonists ATP or α,β-meATP and the investigated NSAIDs were diluted in ORi^− on the day of the recording. The following agonist concentrations were used for the different P2X subtypes: 1 μM ATP (hP2X1R mutant, hP2X3R, rP2X3R, S^15V-hP2X3R, and S^15V-rP2X3R); 10 μM ATP (hP2X2R and hP2X4R); 300 μM free ATP^4- (hP2X7R); and 1 μM α,β-meATP (hP2X2/3R). […]
In the case of fast-desensitizing P2XR subtypes (P2X1R and P2X3R), ATP is applied five times in repetition, and the ATP-induced current amplitude in the presence (after pre-incubation) of the antagonist (fourth application) is compared to the arithmetic mean of flanking control ATP-induced current amplitudes in the absence of the antagonist (third and fifth ATP application). […] The correction factor was calculated as the ratio of the fourth ATP-induced current amplitude to the third amplitude (Eq. 3) when the experiment was performed in the absence of the antagonist. […] Since the magnitude of the run-down varies from day to day and batch to batch of oocytes, the correction factor was determined on each day of the experiments and was calculated as the arithmetic mean of several recordings (at least 3–5 and on average 5) on each day. […]

## O=C(O)Cc1ccccc1Nc1c(Cl)cccc1Cl [Diclofenac, diclofenac]
read-out: % inhibition of 10 µM ATP-induced currents by 3 µM diclofenac
  inhibition at 3 µM: 7.7%
read-out: % inhibition of 10 µM ATP-induced currents by 10 µM diclofenac
  inhibition at 10 µM: 18.4%
read-out: % inhibition of 10 µM ATP-induced currents by 30 µM diclofenac
  inhibition at 30 µM: 37.3%
